Source: BindingDB's records for doi:10.1021/jm010237l (Abbott Laboratories, 2001)

These compounds were tested against Endothelin receptor type B (Sus scrofa) (UniProt P35463) (assay: Binding affinity against endothelin B receptor in porcine cerebellar tissue).
Endothelin receptor type B (Sus scrofa), sequence (P35463 whole entry, looked up): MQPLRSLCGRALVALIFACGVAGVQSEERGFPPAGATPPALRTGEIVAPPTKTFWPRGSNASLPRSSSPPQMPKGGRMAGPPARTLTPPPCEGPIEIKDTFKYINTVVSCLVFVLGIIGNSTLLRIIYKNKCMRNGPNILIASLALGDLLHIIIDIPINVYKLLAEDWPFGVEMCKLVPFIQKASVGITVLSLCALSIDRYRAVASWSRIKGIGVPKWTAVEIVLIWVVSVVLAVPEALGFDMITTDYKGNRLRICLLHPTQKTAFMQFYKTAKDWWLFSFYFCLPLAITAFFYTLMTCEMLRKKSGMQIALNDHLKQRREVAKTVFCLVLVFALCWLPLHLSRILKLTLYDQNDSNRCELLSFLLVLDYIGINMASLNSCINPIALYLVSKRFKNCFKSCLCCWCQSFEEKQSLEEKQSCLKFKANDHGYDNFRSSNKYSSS

| SMILES | IC50 [nM] |
| --- | --- |
| CCCCN(CCCC)C(=O)CN1C[C@H](c2ccc3c(c2)OCCO3)[C@@H](C(=O)O)[C@@H]1c1ccc(CC)cc1 [1-Dibutylcarbamoylmethyl-4-(2,3-dihydro-benzo[1,4]dioxin-6-yl)-2-(4-ethyl-phenyl)-pyrrolidine-3-carboxylic acid] | 7700 |
| CCCCN(CCCC)C(=O)CN1C[C@H](c2ccc3c(c2)CCO3)[C@@H](C(=O)O)[C@@H]1c1ccc(CC)cc1 [1-Dibutylcarbamoylmethyl-4-(2,3-dihydro-benzofuran-5-yl)-2-(4-ethyl-phenyl)-pyrrolidine-3-carboxylic acid] | 8130 |
| CCCCN(CCCC)C(=O)CN1C[C@H](c2ccc3c(c2)CCO3)[C@@H](C(=O)O)[C@@H]1c1ccc(C)cc1 [1-Dibutylcarbamoylmethyl-4-(2,3-dihydro-benzofuran-5-yl)-2-p-tolyl-pyrrolidine-3-carboxylic acid] | 12000 |
| CCCCN(CCCC)C(=O)CN1C[C@H](c2ccc3c(c2)OCO3)[C@@H](C(=O)O)[C@@H]1c1ccc(CC)cc1 [4-Benzo[1,3]dioxol-5-yl-1-dibutylcarbamoylmethyl-2-(4-ethyl-phenyl)-pyrrolidine-3-carboxylic acid] | 1300 |
| CCCCN(CCCC)C(=O)CN1C[C@H](c2ccc3c(c2)OCO3)[C@@H](C(=O)O)[C@@H]1c1ccc(C(F)(F)F)cc1 [4-Benzo[1,3]dioxol-5-yl-1-dibutylcarbamoylmethyl-2-(4-trifluoromethyl-phenyl)-pyrrolidine-3-carboxylic acid] | 14300 |
| CCCCN(CCCC)C(=O)CN1C[C@H](c2ccc3c(c2)OCO3)[C@@H](C(=O)O)[C@@H]1c1ccc(C)cc1 [4-Benzo[1,3]dioxol-5-yl-1-dibutylcarbamoylmethyl-2-p-tolyl-pyrrolidine-3-carboxylic acid] | 2140 |
| CCCCN(CCCC)C(=O)CN1C[C@H](c2ccc3occc3c2)[C@@H](C(=O)O)[C@@H]1c1ccc(OC)cc1 [4-Benzofuran-5-yl-1-dibutylcarbamoylmethyl-2-(4-methoxy-phenyl)-pyrrolidine-3-carboxylic acid] | 5080 |
| CCCCN(CCCC)C(=O)CN1C[C@H](c2ccc3c(c2)CCO3)[C@@H](C(=O)O)[C@@H]1c1ccc(OC)cc1 [(2R,3R,4S)-1-Dibutylcarbamoylmethyl-4-(2,3-dihydro-benzofuran-5-yl)-2-(4-methoxy-phenyl)-pyrrolidine-3-carboxylic acid] | 2670 |

Now those with a lower IC50, led by results:

| IC50 [nM] | SMILES |
| --- | --- |
| 1130 | CCCCN(CCCC)C(=O)CN1C[C@H](c2ccc3c(c2)OCO3)[C@@H](C(=O)O)[C@@H]1c1ccc(CCC)cc1 [4-Benzo[1,3]dioxol-5-yl-1-dibutylcarbamoylmethyl-2-(4-propyl-phenyl)-pyrrolidine-3-carboxylic acid] |
| 1040 | CCCCN(CCCC)C(=O)CN1C[C@H](c2ccc3c(c2)OCO3)[C@@H](C(=O)O)[C@@H]1c1ccc(F)c(F)c1 [4-Benzo[1,3]dioxol-5-yl-1-dibutylcarbamoylmethyl-2-(3,4-difluoro-phenyl)-pyrrolidine-3-carboxylic acid] |
| 960 | CCCCN(CCCC)C(=O)CN1C[C@H](c2ccc3c(c2)OCC3)[C@@H](C(=O)O)[C@@H]1c1ccc(OC)cc1 [1-Dibutylcarbamoylmethyl-4-(2,3-dihydro-benzofuran-6-yl)-2-(4-methoxy-phenyl)-pyrrolidine-3-carboxylic acid] |
| 300 | CCCCN(CCCC)C(=O)CN1C[C@H](c2ccc3c(c2)OCO3)[C@@H](C(=O)O)[C@@H]1c1ccc(OC)c(OC)c1 [4-Benzo[1,3]dioxol-5-yl-1-dibutylcarbamoylmethyl-2-(3,4-dimethoxy-phenyl)-pyrrolidine-3-carboxylic acid] |
| 30 | CCCCN(CCCC)C(=O)CN1C[C@H](c2ccc3c(c2)OCO3)[C@@H](C(=O)O)[C@@H]1c1ccc(OC)c(F)c1 [4-Benzo[1,3]dioxol-5-yl-1-dibutylcarbamoylmethyl-2-(3-fluoro-4-methoxy-phenyl)-pyrrolidine-3-carboxylic acid] |
